In PMC5908295 (Oncotarget, 2018):

Key:
CYP2C8 = target: T1, CYP2C8 (Homo sapiens, UniProt P10632); experiment: CYP isoforms inhibition; assay type: in vitro ADME; conditions: 5-dose, 3-fold dilution starting at 30 µM
T1 construct: Cambridge Bioscience Limited (ran the assay)
Experimental: (§1) or absence of enzyme cofactors. The assay was performed microsomes. (Supplementary Table 7).
(§2) with the respective reference samples (i.e. without measured at Cambridge Bioscience Limited (except
(§3) cofactors). After incubation, drug transformation by liver CYP1A2 inhibition which was measured in-house). The
(§4) enzymes was terminated by adding cold acetonitrile.
(§5) loss of compound was determined by LC-MS analysis. serial dilution starting at 30 μM. The control compound
(§6) The analysis of two standard compounds (i.e. positive a very weak potential for CYP inhibition with IC50
(§7) and negative controls) was included. […]

CYP1A2 = CYP1A2 (Homo sapiens, UniProt P05177); experiment: CYP isoforms inhibition; assay type: in vitro ADME; conditions: 5-dose, 3-fold dilution starting at 30 µM; in-house
Experimental: as §1, §2, §3, §4, §5, §6, §7

CYP2B6 = target: T2, CYP2B6 (Homo sapiens, UniProt P20813); experiment: CYP isoforms inhibition; assay type: in vitro ADME; conditions: 5-dose, 3-fold dilution starting at 30 µM
T2 construct: Cambridge Bioscience Limited (ran the assay)
Experimental: as §1, §2, §3, §4, §5, §6, §7

SKM-1 = experiment: MTS viability assay, 72 h; conditions: Homo sapiens, SKM-1, 72 h
Experimental: On the same day, 50 μL of medium containing tested inhibitor was added to the wells. Each compound was tested at 8 concentrations, in triplicates. As a negative control, the medium containing 0.1% DMSO was used. […] Staurosporine was used at 10 μM as a positive control. One the day of drug addition, basal signal from untreated cells was measured from in triplicate to determine time zero (T0). […] GI50 and LC50 values were extrapolated from a variable (four-parameter) dose-response curve fitted in GraphPad Prism.

RS4;11 = experiment: MTS viability assay, 72 h; conditions: Homo sapiens, RS4-11, 72 h
Experimental: 15-25 ×10^3 of MV-4-11, MOLM-13, MOLM-14, MOLM-16, KG-1, Eol-1, SKM-1, PL-21, GDM-1, SKNO-1, RS4;11, Kasumi-3 and Kasumi-6 cells were seeded in 150 μL of culture medium onto individual wells in a 96 well plates, in triplicates. On the same day, 50 μL of medium containing tested inhibitor was added to the wells. Each compound was tested at 8 concentrations, in triplicates. As a negative control, the medium containing 0.1% DMSO was used. […] Staurosporine was used at 10 μM as a positive control. One the day of drug addition, basal signal from untreated cells was measured from in triplicate to determine time zero (T0). […] GI50 and LC50 values were extrapolated from a variable (four-parameter) dose-response curve fitted in GraphPad Prism.

[1] = test system: S6 phosphorylation (Ser235/236) in MV-4-11 cells; experiment: S6 phosphorylation, Western blot; assay type: cell-based; conditions: Homo sapiens, MV4-11; MV-4-11, 4 hours; read-out: IC50 S6 phosphorylation (Ser235/236), Western blotting
Experimental: (§8) Cells were collected, washed twice with cold PBS, and lysed in RIPA buffer and kept on ice for 10 min. Tumor specimens from xenograft studies were homogenized in RIPA buffer using OMNI TH Tissue Homogenizer and kept on ice for 30 min. After incubation, cell and tumor lysates were centrifuged at 13,000×g at 4°C for 10 min and the supernatants were stored at −80°C until use. Protein concentration was measured using the Bradford method. For SDS-PAGE, 50 μg of protein in the Laemmli sample buffer was loaded onto 10% polyacrylamide gels and electrophoresed. Thereafter, proteins were transferred onto polyvinylidene fluoride (PVDF) membranes (Millipore). After blocking with 5% non-fat dry milk/TBS-T or 2% BSA/TBS-T, membranes were incubated with specific primary antibodies (listed in Supplementary Table 2) at 4 °C overnight. After extensive washing in PBS-T, membranes were incubated for 60 min with appropriate secondary peroxidase-conjugated IgG. The immunoreactive proteins were detected using an enhanced chemiluminescence (ECL) substrate (GE Healthcare) and visualized with Hyperfilm-ECL (GE Healthcare Biosciences).

[2] = test system: S6 phosphorylation (Ser235/236) in KG-1 cells; experiment: S6 phosphorylation, Western blot; assay type: cell-based; conditions: Homo sapiens; KG-1, 4 hours; read-out: IC50 S6 phosphorylation (Ser235/236), Western blotting
Experimental: as §8

[3] = test system: S6 phosphorylation (Ser235/236) in MOLM-16 cells; experiment: S6 phosphorylation, Western blot; assay type: cell-based; conditions: MOLM16; MOLM-16, 4 hours; read-out: IC50 S6 phosphorylation (Ser235/236), Western blotting
Experimental: as §8

[4] = test system: S6 phosphorylation (Ser235/236) in MOLM-13 cells; experiment: S6 phosphorylation, Western blot; assay type: cell-based; conditions: Homo sapiens; MOLM-13, 4 hours; read-out: IC50 S6 phosphorylation (Ser235/236), Western blotting
Experimental: as §8

[5] = Metabolic stability, liver microsomes; assay type: in vitro ADME; conditions: Dog, 37 °C, read-out: Liver microsomes t1/2 (converted)
PIM3 = PIM3 (Homo sapiens, UniProt Q86V86); experiment: KINOMEscan Kd (DiscoverX); assay type: binding
[6] = Blood biochemistry in mice with MV-4-11 tumors; assay type: in vivo; conditions: treatment day 15
Excerpt: All animals were handled in strict accordance with good animal practice as defined by the relevant national and local animal welfare bodies. SCID and SCID/beige C.B-17 mice were provided by Harlan Laboratories or Charles River Laboratories, and were maintained in pathogen free conditions. For the xenograft experiments, age-matched (9-11 weeks old) females were used. 5×10^6 of MV-4-11 or MOLM-16 cells were suspended in a mixture (1:1, v:v) of PBS with Matrigel (BD Biosciences,) and injected subcutaneously (sc), in a total volume of 100 μL, above the groin on the right hind limb. For MOLM-13 and KG-1 cells, a mixture (3:1, v:v) of PBS and Matrigel HC (BD Bioscience,) was used to inject 5 × 10^6 of cell per mouse subcutaneously (sc), in a total volume of 100 μL. When tumors reached 100-130 mm^3, mice were randomized into uniform groups (6-9 mice per group) and subsequently administered the compound. […] At the end of the experiment, mice were anesthetized with isofluran and blood samples for total cell counts and biochemistry were obtained by retro-orbital bleeding. […] 5×10^6 cells suspended in a mixture (3:1, v:v) of PBS and Matrigel were injected as described above. When the tumor volume reached ~120 mm^3, mice were randomized into uniform groups (5 mice per group) and the compound then administered. […] Tumor volume was monitored every second day and calculated using the formula: TV = (a^2×b)/2, where “a” is the short axis in millimeters, and “b” is the long axis in millimeters. Body weight was assessed every day.
Supplementary Table 9: Related to Figure 5C. […] The assessment of
was performed on treatment day 15.
AST – Aspartate aminotransferase, ALT – Alanine transaminase, ALP – alkaline phosphatase, UREA – blood urea nitrogen,
CREA – Creatinine, CK – Creatine kinase, TP- total protein; ALB – Albumin. […]

CYP2C19 = target: T3, CYP2C19 (Homo sapiens, UniProt P33261); experiment: CYP isoforms inhibition; assay type: in vitro ADME; conditions: 5-dose, 3-fold dilution starting at 30 µM
T3 construct: Cambridge Bioscience Limited (ran the assay)
Experimental: as §1, §2
(§9) cofactors). After incubation, drug transformation by liver CYP1A2 inhibition which was measured in-house). […]
(§10) The control compound
as §6, §7

CYP3A4 = target: T4, CYP3A4 (Homo sapiens, UniProt P08684); experiment: CYP isoforms inhibition; assay type: in vitro ADME; conditions: 5-dose, 3-fold dilution starting at 30 µM
T4 construct: Cambridge Bioscience Limited (ran the assay)
Experimental: as §1, §2, §9, §10, §6, §7

T3 sequence (P33261 whole entry, canonical isoform): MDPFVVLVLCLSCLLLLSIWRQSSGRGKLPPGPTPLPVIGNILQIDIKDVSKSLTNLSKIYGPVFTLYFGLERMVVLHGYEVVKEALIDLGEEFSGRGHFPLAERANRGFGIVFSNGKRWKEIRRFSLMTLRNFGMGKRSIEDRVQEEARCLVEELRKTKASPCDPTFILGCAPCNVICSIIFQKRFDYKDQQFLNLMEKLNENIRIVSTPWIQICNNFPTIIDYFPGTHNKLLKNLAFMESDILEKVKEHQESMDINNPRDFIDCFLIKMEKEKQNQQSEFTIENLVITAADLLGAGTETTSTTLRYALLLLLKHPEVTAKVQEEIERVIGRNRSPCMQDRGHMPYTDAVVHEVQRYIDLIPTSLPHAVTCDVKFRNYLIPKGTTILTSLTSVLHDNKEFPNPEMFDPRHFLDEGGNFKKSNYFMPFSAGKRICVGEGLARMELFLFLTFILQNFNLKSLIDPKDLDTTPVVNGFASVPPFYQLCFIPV
T4 sequence (P08684 whole entry, canonical isoform): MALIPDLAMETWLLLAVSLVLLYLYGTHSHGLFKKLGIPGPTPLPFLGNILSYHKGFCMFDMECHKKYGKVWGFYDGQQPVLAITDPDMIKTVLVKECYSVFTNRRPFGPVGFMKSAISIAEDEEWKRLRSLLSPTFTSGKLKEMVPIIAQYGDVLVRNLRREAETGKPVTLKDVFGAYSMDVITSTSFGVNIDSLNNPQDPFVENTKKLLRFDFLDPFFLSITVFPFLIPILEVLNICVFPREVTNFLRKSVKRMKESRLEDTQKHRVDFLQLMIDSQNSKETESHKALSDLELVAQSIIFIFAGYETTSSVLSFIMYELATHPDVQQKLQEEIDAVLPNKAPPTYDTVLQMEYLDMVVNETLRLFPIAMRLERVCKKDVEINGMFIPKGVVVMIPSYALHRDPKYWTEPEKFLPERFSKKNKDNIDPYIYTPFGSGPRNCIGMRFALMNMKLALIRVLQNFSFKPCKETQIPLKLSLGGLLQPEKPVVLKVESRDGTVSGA
Chain of CYP1A2 (P05177 whole entry, canonical isoform): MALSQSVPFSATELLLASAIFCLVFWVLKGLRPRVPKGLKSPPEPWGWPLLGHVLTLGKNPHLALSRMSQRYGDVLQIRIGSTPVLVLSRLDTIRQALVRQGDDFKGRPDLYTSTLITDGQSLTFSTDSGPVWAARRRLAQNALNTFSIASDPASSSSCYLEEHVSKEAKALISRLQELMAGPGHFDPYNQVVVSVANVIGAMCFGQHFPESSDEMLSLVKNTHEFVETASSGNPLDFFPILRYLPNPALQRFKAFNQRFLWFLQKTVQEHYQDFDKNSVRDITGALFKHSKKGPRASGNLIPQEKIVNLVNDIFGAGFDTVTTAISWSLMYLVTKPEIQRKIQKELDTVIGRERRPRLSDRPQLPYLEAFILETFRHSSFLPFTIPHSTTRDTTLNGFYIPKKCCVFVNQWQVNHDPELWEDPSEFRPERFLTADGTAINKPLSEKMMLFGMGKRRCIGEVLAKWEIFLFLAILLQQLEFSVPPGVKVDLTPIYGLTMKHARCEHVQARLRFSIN
T1 sequence (P10632 whole entry, canonical isoform): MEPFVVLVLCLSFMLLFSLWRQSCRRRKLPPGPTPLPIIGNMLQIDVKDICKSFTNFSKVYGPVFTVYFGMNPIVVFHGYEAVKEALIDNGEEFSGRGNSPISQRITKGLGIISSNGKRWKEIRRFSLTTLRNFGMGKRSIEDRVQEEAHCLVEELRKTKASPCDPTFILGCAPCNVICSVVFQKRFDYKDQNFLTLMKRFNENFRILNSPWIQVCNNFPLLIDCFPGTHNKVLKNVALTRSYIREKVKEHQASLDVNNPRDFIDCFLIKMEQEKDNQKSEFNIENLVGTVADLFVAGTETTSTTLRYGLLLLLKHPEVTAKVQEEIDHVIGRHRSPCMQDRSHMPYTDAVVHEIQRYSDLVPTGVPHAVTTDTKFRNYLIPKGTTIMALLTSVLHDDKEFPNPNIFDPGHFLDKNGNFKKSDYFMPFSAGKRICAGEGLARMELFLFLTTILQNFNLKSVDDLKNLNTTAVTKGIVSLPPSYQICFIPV
T2 sequence (P20813 whole entry, canonical isoform): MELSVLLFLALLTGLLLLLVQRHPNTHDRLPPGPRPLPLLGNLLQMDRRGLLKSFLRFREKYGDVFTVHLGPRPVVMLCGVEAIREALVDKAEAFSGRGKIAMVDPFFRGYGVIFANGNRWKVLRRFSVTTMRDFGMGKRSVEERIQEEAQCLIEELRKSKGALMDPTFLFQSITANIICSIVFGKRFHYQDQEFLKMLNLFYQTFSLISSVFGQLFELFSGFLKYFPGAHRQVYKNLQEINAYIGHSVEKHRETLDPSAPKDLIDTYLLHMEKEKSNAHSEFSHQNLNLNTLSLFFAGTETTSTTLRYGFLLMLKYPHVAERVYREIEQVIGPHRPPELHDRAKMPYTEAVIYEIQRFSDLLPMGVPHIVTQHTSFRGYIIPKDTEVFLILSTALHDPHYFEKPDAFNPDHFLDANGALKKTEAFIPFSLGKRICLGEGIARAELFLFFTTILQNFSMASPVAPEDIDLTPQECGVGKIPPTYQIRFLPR

## CC(C)n1c(C2CCNCC2)nc2c([N+](=O)[O-])c(Br)c(Br)cc21 [SEL24-B489, 5,6-dibromo-4-nitro-2-(piperidin-4-yl)-1-(propan-2-yl)-1H-1,3-benzodiazole]
CYP2C8
  IC50: > 30000 nM
CYP1A2
  IC50: > 30000 nM
CYP2B6
  IC50: > 40000 nM
SKM-1
  GI50: 732 nM
SKM-1; read-out: LC50
  CC50: 7770 nM
RS4;11
  GI50: 190 nM
RS4;11; read-out: LC50
  CC50: 2160 nM
[1]
  IC50: 1 nM
[2]
  IC50: 31 nM
[3]
  IC50: 35 nM
[4]
  IC50: 3 nM
[5]
  half-life at 1 µM: 7.6 h
PIM3
  Kd: 3 nM
[6]; SEL24-B489 25 mg/kg
  ALB: 5.3 g/dL
  ALP: 94.2 U/L
  AST: 202.4 U/L
  CK: 2076 U/L
  CREA: 0.40 mg/dL
  K: 5.3 mM
  TP: 5.6 g/dL
  UREA: 6.0 mmol/L
[6]; SEL24-B489 50 mg/kg
  ALB: 4.4 g/dL
  ALP: 97.2 U/L
  ALT: 49.4 U/L
  AST: 135.2 U/L
  CK: 1206 U/L
  CREA: 0.49 mg/dL
  K: 5.3 mM
  Na: 141 mM
  TP: 5.1 g/dL
  UREA: 6.6 mmol/L
CYP2C19
  IC50: > 70000 nM
CYP3A4
  IC50: > 100000 nM
